These results are taken from patent US20140296143A1, “Angiotensin-(1-7) As A Chemoprevention Agent” (Wake Forest Innovations, priority 2008, published 2014).

Each structure is given as a SMILES string.

Assay [1] has as its system SK-LU-1 lung cancer cells. It is filed as cell-based, human.
Description: Cells were grown to subconfluence in either 24-well cluster plates or 100 mm dishes and made quiescent by treatment for 48 h with serum-depleted growth media, prior to the experiments outlined below to measure cell growth (^3H-thymidine incorporation), cell signaling or apoptosis.
Subsequently, the cell monolayer was washed with cold phosphate-buffered saline (PBS; 50 mM NaPO4, 120 mM NaCl, pH=7.2). The adherent cells were precipitated with cold 10% TCA (4° C. for 30 min) and dissolved in 0.2% SDS in 0.1 N NaOH.
During an additional 4 h, cell monolayers were pulsed with ^3H-thymidine (0.25 μCi/well) and harvested.
In assay [2] the test system is ZR-75-1 breast cancer cell line tumors. Nature of the assay: ZR-75-1 breast cancer xenograft in athymic mice, intravenous infusion. It is filed as in vivo, mouse. The settings on record: 24 μg/kg/hr infusion, 28 days; saline tumors doubled. Here is the method: (§1) Male or female athymic mice (15-20 g, 2-4 weeks of age, Charles River Laboratory, Wilmington, Mass.) were housed in cages with HEPA-filtered air (12-hour light/dark cycle) and ad libitum access to food and autoclaved water. All procedures complied with the policies of the Wake Forest University Animal Care and Use Committee. Mice were inoculated subcutaneously in the lower left flank with approximately 1.9×10^6 A549 lung cancer cells or ZR-75-1 breast cancer cells suspended in 200 μL of cold Matrigel (BD Biosciences, Bedford, Mass.). […] The mice were anesthetized by inhalation with 1.5% isoflurane. […] The minipumps also contained heparin (25 U/mL) to maintain patency of the catheter. On day 28 of the infusion, the animals were anesthetized with halothane and sacrificed by decapitation. Alternatively, the mice received daily subcutaneous injections of Ang-(1-7) in saline or saline alone.
Tumor volumes were measured by caliper two times per week and calculated using the formula for a semiellipsoid. After 40 days, the mice had tumors approximately 175 mm^3 in size and were randomized for treatment.

In assay [3] the test system is A549 human lung tumor xenografts. Nature of the assay: A549 human lung tumor xenograft in athymic mice, subcutaneous injection. It is filed as in vivo, mouse. Here is the method: For reverse-transcriptase real-time PCR, RNA was isolated from cells or tissue, using the TRIzol reagent (GIBCO Invitrogen Corp., Carlsbad, Calif.), as directed by the manufacturer. The RNA concentration and integrity were assessed using an Agilent 2100 Bioanalyzer with an RNA 6000 nano LabChip (Agilent Technologies, Palo Alto, Calif.). Approximately 1 μg of total RNA was reverse transcribed using avian myeloblastosis virus reverse transcriptase (RT) in a 20 μL mixture containing deoxyribonucleotides, random hexamers and RNase inhibitor in RT buffer. Heating the RT reaction product at 95° C. terminated the reaction. For real-time polymerase chain reaction (PCR), 2 μL of the resultant cDNA was added to TaqMan Universal PCR Master Mix (Applied Biosystems, Foster City, Calif.) with a gene-specific primer/probe set (Applied Biosystems, Foster City, Calif.) and amplification was performed on an ABI 7000 Sequence Detection System. The mixtures were heated at 50° C. for 2 min, at 95° C. for 10 min followed by 40 cycles at 95° C. for 15 sec and 60° C. for 1 min. All reactions were performed in triplicate and 18S ribosomal RNA, amplified using the TaqMan Ribosomal RNA Control Kit (Applied Biosystems), served as an internal control. The results were quantified as Ct values, where Ct is defined as the threshold cycle of PCR at which amplified product is first detected, and expressed as the ratio of target/control (Relative Gene Expression).
as §1
The mice were injected daily, for 5 days, followed by a 2 day rest period, and the injections were continued for 7 cycles. Tumor size was measured every 3 days during the treatment period, using a caliper, and tumor volume was calculated using the formula for a semi-ellipsoid. The tumors continued to grow in the mice treated with saline (FIG. 33). […] It should be noted that a number of the saline control mice were sacrificed after 1 month due to excessive tumor size. Only a single control mouse remained in the study by the 40th day, while the Ang-(1-7)-treated mice thrived.
For orientation: In xenograft studies the graft and the host belong to different species.

In assay [4] the test system is VEGF mRNA. The assay is described as follows: VEGF mRNA in A549 cells by RT-PCR. It is filed as cell-based, human. Particulars: 100 nM, 2-4 hours. Here is the method:
RNA, isolated from cells or tissue, using the TRIzol reagent (GIBCO Invitrogen, Carlsbad, Calif.), was subjected to reverse transcriptase/real-time polymerase chain reaction as previously described (Tallant et al., Am. J. Physiol. Heart Circ. Physiol., 2005, 289:1560-1566). All reactions were performed in triplicate and 18S ribosomal RNA, amplified using the TaqMan Ribosomal RNA Control Kit (Applied Biosystems), served as an internal control. The results were quantified as Ct values, where Ct is defined as the threshold cycle of PCR at which amplified product is first detected, and defined as relative gene expression (the ratio of target/control). […] The RNA concentration was quantified by UV spectroscopy and any degradation assessed by ethidium bromide staining intensity of 28S and 18S ribosomal RNA following agarose gel electrophoresis. […] Following PCR, the amplification products were separated by polyacrylamide gel electrophoresis, visualized by autoradiography, and analyzed using the MCID imaging system.
For reverse-transcriptase real-time PCR, RNA was isolated from cells or tissue, using the TRIzol reagent (GIBCO Invitrogen Corp., Carlsbad, Calif.), as directed by the manufacturer. The RNA concentration and integrity were assessed using an Agilent 2100 Bioanalyzer with an RNA 6000 nano LabChip (Agilent Technologies, Palo Alto, Calif.). […]

Assay [5] deals with SK-LU-1 cells. The assay is described as follows: Gene array hybridization (Human Cancer 1.2 Atlas cDNA Expression Array) in SK-LU-1 cells. The settings on record: SK-LU-1, 1% serum, 100 nM. In kind it is cell-based. Here is the method:
Cells were incubated for 2 or 8 h, and total RNA was isolated using the Atlas Pure Total RNA Labeling System (Clontech Laboratories, Inc). The RNA concentration was quantified by UV spectroscopy and any degradation was assessed by ethidium bromide staining intensity of 28S and 18S ribosomal RNA following agarose gel electrophoresis. RNA isolated from seven different cell passages was pooled prior to gene array analysis to account for individual variability in gene regulation. Radiolabeled cDNA, prepared from the pooled RNAs using the Atlas system, was incubated with DNase to degrade any residual DNA and then hybridized to the Human Cancer 1.2 Atlas cDNA Expression Array (Clonetech Laboratories, Inc). This gene array set contains 1,176 characterized human cDNAs on positively-charged nylon membranes.

For assay [6], the target named is AT1 angiotensin receptor. Particulars: cited from earlier work.
Setting [7] is: 1000 μg/kg/day, radioimmunoassay.
Where [8] appears, read: subcutaneous 1000 μg/kg/day, versus saline.

As for `CC[C@H](C)[C@H](NC(=O)[C@H](Cc1ccc(O)cc1)NC(=O)[C@@H](NC(=O)[C@H](CCCNC(=N)N)NC(=O)[C@@H](N)CC(=O)O)C(C)C)C(=O)N[C@@H](Cc1c[nH]cn1)C(=O)N1CCC[C@H]1C(=O)O` [Ang-(1-7), Asp-Arg-Val-Tyr-Ile-His-Pro], the “^3H-thymidine incorporation over time of treatment” value in assay [1] (SK-LU-1, 1% FBS, daily addition of 100 nM) was “progressively reduced”. Moreover, the “effect on serum-stimulated ^3H-thymidine incorporation” value in assay [1] (SK-LU-1, peptide at 1 or 100 nM) was “reduced”. In addition, the “reduction in tumor volume compared to tumor size prior to treatment” value in assay [2] is approximately 40%. Moreover, the prostacyclin synthase result in assay [3] (1000 μg/kg/day) is given as “not altered”. Besides, in assay [3] (setting [7]), the PGE2 in tumors result was “reduced” and the PGI2 in tumors entry is “increased”. Further, the tumor growth result in assay [3] (subcutaneous 1000 μg/kg/day, 5 days on/2 days rest, 7 cycles) is “significantly reduced”. In addition, in assay [3] (setting [8]), the COX-2 in tumors entry is given as “marked down-regulation”, the “down-regulation in VEGF mRNA in tumor tissue” value is “about 40%” and the “reduction in prostaglandin E2 synthase (PGES) mRNA in tumors” value was “greater than 50%”. In assay [4], the “optimal reduction of VEGF mRNA” value is on record as “greater than 50%”. Further, in assay [5], the “expression of MEK5, ERK1, p21/K-ras 2B” value is given as “reduced” and the “expression of p16^INK4a, menin, BAD, BAK, apoptotic protease activating factor 1” value was “upregulated”. Also, the “IC50 at the AT1 angiotensin receptor” value in assay [6] (Tallant et al., 1999) is “micromolar range”. Besides, in assay [6] (literature), the “competition at the AT1 receptor” value is on record as “poor competitor”.
